Laboratory results reported in ChEMBL document CHEMBL1131713, “Substituted piperidines--highly potent renin inhibitors due to induced fit adaptation of the active site” (Bioorg Med Chem Lett, 1999).
Calls of active or inactive are those of the source. The rule behind the calls is not given here.

Columns and labels:
[1] = target: T1, Renin (Homo sapiens, UniProt P00797); assay: In vitro inhibitory activity against purified recombinant human renin
T1 sequence (P00797 whole entry): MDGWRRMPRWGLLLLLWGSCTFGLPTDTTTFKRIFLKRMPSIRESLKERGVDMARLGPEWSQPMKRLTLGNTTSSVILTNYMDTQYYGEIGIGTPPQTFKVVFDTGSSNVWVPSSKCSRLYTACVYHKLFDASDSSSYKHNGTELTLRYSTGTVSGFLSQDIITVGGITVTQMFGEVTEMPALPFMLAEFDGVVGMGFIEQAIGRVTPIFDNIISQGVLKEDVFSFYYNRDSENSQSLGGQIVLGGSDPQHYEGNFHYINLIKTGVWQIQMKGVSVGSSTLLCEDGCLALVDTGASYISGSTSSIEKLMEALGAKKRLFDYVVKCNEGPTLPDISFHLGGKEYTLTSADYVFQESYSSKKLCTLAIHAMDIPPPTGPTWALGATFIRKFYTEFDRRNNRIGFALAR

[2] = target: Human immunodeficiency virus type 1 protease (Human immunodeficiency virus 1) (UniProt Q72874); assay: Inhibition against HIV protease; NA means no activity
[3] = target: Pepsin A (Sus scrofa) (UniProt P00791); assay: Inhibition against porcine pepsin; NA means no activity
Sequence of Pepsin A (Sus scrofa) (P00791 60-385 limits assumed): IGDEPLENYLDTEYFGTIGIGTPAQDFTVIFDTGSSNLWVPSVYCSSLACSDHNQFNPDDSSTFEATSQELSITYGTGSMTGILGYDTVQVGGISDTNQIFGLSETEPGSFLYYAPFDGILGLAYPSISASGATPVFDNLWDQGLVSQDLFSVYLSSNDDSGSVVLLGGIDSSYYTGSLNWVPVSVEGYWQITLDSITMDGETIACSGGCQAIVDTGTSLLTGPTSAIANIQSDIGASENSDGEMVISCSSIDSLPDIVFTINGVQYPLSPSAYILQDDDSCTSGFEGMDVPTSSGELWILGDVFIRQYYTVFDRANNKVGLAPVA

[4] = target: T2, Cathepsin D (Bos taurus) (UniProt P80209); assay: Inhibition against bovine cathepsin D; NA means no activity
T2 sequence (whole entry): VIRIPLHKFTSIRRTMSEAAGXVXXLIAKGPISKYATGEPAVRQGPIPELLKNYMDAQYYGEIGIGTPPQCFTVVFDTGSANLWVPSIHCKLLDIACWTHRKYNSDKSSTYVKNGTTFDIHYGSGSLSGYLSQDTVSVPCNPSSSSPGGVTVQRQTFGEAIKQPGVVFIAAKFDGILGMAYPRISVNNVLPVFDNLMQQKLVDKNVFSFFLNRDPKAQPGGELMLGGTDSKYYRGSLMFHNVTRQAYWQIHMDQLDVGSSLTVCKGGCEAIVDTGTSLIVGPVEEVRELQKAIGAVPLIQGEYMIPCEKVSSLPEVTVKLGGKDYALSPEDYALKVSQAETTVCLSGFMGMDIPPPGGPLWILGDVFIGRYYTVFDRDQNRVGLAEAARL

IC50 [1] | Compound | further results
26 µM | COc1ccc(CO[C@H]2CNCC[C@@H]2c2ccc(Cl)cc2)cc1 | –
1200 µM | COc1ccc(CO[C@@H]2CNCC[C@H]2c2ccc(Cl)cc2)cc1 | –
0.58 µM | O=C(OCCOc1ccc([C@H]2CCNC[C@@H]2OCc2ccc3ccccc3c2)cc1)c1cccnc1 (racemic) | –
0.053 µM | c1ccc(COCCOc2ccc([C@H]3CCNC[C@@H]3OCc3ccc4ccccc4c3)cc2)cc1 (racemic) | –
0.026 µM | O=C(OCCOc1ccc([C@H]2CCNC[C@@H]2OCc2ccc3ccccc3c2)cc1)c1ccccc1 (racemic) | –
0.21 µM | c1ccc(COCCCOc2ccc([C@H]3CCNC[C@@H]3OCc3ccc4ccccc4c3)cc2)nc1 (racemic) | –
40 µM | O=S(=O)(NCc1ccc([C@H]2CCNC[C@@H]2OCc2ccc3ccccc3c2)cc1)c1ccccc1 (racemic) | –
0.54 µM | c1ccc(OCCCOCc2ccc([C@H]3CCNC[C@@H]3OCc3ccc4ccccc4c3)cc2)cc1 (racemic) | –
0.22 µM | O=C(CCCOc1ccc([C@H]2CCNC[C@@H]2OCc2ccc3ccccc3c2)cc1)c1ccccc1 (racemic) | –
0.087 µM | COc1cccc(C(=O)OCc2ccc([C@H]3CCNC[C@@H]3OCc3ccc4ccccc4c3)cc2)c1 (racemic) | –
0.22 µM | c1ccc(OCCCCOc2ccc([C@H]3CCNC[C@@H]3OCc3ccc4ccccc4c3)cc2)cc1 (racemic) | –
0.055 µM | O=C(OCc1ccc([C@H]2CCNC[C@@H]2OCc2ccc3ccccc3c2)cc1)c1ccccc1 (racemic) | –
0.008 µM | c1ccc(COCCCOc2ccc([C@H]3CCNC[C@@H]3OCc3ccc4ccccc4c3)cc2)cc1 (racemic) | –
0.16 µM | c1ccc(CCOCCOc2ccc([C@H]3CCNC[C@@H]3OCc3ccc4ccccc4c3)cc2)cc1 (racemic) | –
0.091 µM | c1ccc(COCCOCc2ccc([C@H]3CCNC[C@@H]3OCc3ccc4ccccc4c3)cc2)cc1 (racemic) | –
50 µM | COc1ccc(COC2CNCCC2c2ccc(Cl)cc2)cc1 (racemic) | Activity [2]: inactive; Activity [3]: inactive; Activity [4]: inactive
0.0015 µM | COc1ccccc1COCCCOc1ccc([C@H]2CCNC[C@@H]2OCc2ccc3ccccc3c2)cc1 (racemic) | –
> 1000 µM | COc1ccc(C(=O)NCc2ccc([C@H]3CCNC[C@@H]3OCc3ccc4ccccc4c3)cc2)cc1 (racemic) | –
0.16 µM | c1ccc(OCCOCc2ccc([C@H]3CCNC[C@@H]3OCc3ccc4ccccc4c3)cc2)cc1 (racemic) | –
0.1 µM | c1ccc(COCCCCOc2ccc([C@H]3CCNC[C@@H]3OCc3ccc4ccccc4c3)cc2)cc1 (racemic) | –
6e-05 µM | COc1ccccc1COCCCOc1ccc([C@H]2CCNC[C@@H]2OCc2cc(OC)c3ccccc3c2OC)cc1 (racemic) | –
0.041 µM | c1ccc(-c2noc(COc3ccc([C@H]4CCNC[C@@H]4OCc4ccc5ccccc5c4)cc3)n2)cc1 (racemic) | –
2.6 µM | O=C(NCCOc1ccc([C@H]2CCNC[C@@H]2OCc2ccc3ccccc3c2)cc1)c1ccccc1 (racemic) | –
0.74 µM | c1ccc(COCCCOCc2ccc([C@H]3CCNC[C@@H]3OCc3ccc4ccccc4c3)cc2)cc1 (racemic) | –
0.88 µM | c1cncc(-c2noc(COc3ccc([C@H]4CCNC[C@@H]4OCc4ccc5ccccc5c4)cc3)n2)c1 (racemic) | –
2.5e-05 µM | CC(C)(C)S(=O)(=O)C[C@@H](Cc1ccccc1)C(=O)N[C@@H](Cc1cnc[nH]1)C(=O)N[C@@H](CC1CCCCC1)[C@@H](O)[C@@H](O)C1CC1 [REMIKIREN] | –
